In ChEMBL document CHEMBL5338785, “Development of Aromatic-Linked Diamino Acid Antimicrobial Peptide Mimics with Low Hemolytic Toxicity and Excellent Activity against Methicillin-Resistant Staphylococcus aureus (MRSA)” (J Med Chem, 2023):
Converted amounts (≈) assume the structure as drawn.

How the values were obtained:
[1] = test system: Staphylococcus aureus; test: Antibacterial activity against methicillin-resistant Staphylococcus aureus assessed as bacterial growth inhibition incubated for 18 hrs by CLSI protocol based Mueller-Hinton broth assay; assay type: functional; settings: Staphylococcus aureus, read-out: MIC
[2] = test system: Enterococcus faecalis; test: Antibacterial activity against Enterococcus faecalis assessed as bacterial growth inhibition incubated for 18 hrs by CLSI protocol based Mueller-Hinton broth assay; assay type: functional; settings: Enterococcus faecalis, 18 h, read-out: MIC
[3] = test system: Escherichia coli; test: Antibacterial activity against Escherichia coli assessed as bacterial growth inhibition incubated for 18 hrs by CLSI protocol based Mueller-Hinton broth assay; assay type: functional; settings: Escherichia coli, read-out: MIC
[4] = test system: Stenotrophomonas maltophilia; test: Antibacterial activity against Stenotrophomonas maltophilia assessed as bacterial growth inhibition incubated for 18 hrs by CLSI protocol based Mueller-Hinton broth assay; assay type: functional; settings: Stenotrophomonas maltophilia, read-out: MIC
[5] = Hemolytic activity in sheep RBC assessed as hemolysis incubated for 1 hr by microplate reader method; assay type: toxicity, cell-based, Ovis aries, Erythrocyte; settings: sheep red blood cells
[6] = Selectivity index, ratio of HC50 for hemolytic activity in sheep RBC to MIC for antibacterial activity against methicillin-resistant Staphylococcus aureus assessed as bacterial growth inhibition; assay type: toxicity; settings: sheep red blood cells

SMILES: CCCCCCCCN(CCCOc1ccc(-c2ccc(OCCCN(CCCCCCCC)C(=O)[C@@H](N)CCCCN)cc2)cc1)C(=O)[C@@H](N)CCCCN.Cl.Cl.Cl.Cl
- MIC [1]: 2 µg/mL
- MIC [2]: 2 µg/mL
- MIC ([3]; 18 h): 4 µg/mL
- MIC [4]: 4 µg/mL
- HC50 at 1 h [5]: < 0.25 µg/mL
- selectivity ratio [6]: < 0.125

SMILES: CCCCCCN(CCOc1ccc(OCCN(CCCCCC)C(=O)[C@@H](N)CCCCN)cc1)C(=O)[C@@H](N)CCCCN.Cl.Cl.Cl.Cl
- MIC [1]: 4 µg/mL
- MIC [2]: 8 µg/mL
- MIC ([3]; 18 h): 64 µg/mL
- MIC [4]: 64 µg/mL
- HC50 at 1 h [5]: > 1000 µg/mL
- selectivity ratio [6]: > 250

SMILES: CCCCCCCCN(CCCOc1ccccc1-c1ccccc1OCCCN(CCCCCCCC)C(=O)[C@@H](N)CCCCN)C(=O)[C@@H](N)CCCCN.Cl.Cl.Cl.Cl
- MIC [1]: 4 µg/mL
- MIC [2]: 1 µg/mL
- MIC ([3]; 18 h): 2 µg/mL
- MIC [4]: 2 µg/mL
- HC50 at 1 h [5]: 20 µg/mL
- selectivity ratio [6]: 5

SMILES: CCCCCCCCN(CCCCOc1ccc(OCCCCN(CCCCCCCC)C(=O)[C@@H](N)CCCCN)cc1)C(=O)[C@@H](N)CCCCN.Cl.Cl.Cl.Cl
- MIC [1]: 2 µg/mL
- MIC [2]: 1 µg/mL
- MIC ([3]; 18 h): 2 µg/mL
- MIC [4]: 1 µg/mL
- HC50 at 1 h [5]: 28 µg/mL
- selectivity ratio [6]: 14

SMILES: CCCCCCCN(CCOc1ccc(OCCN(CCCCCCC)C(=O)[C@@H](N)Cc2ccccc2)cc1)C(=O)[C@@H](N)Cc1ccccc1.Cl.Cl
- MIC [1]: 2 µg/mL
- MIC [2]: 1 µg/mL
- MIC ([3]; 18 h): > 128 µg/mL
- MIC [4]: > 128 µg/mL
- HC50 at 1 h [5]: 145 µg/mL
- selectivity ratio [6]: 72.5

SMILES: CCCCCCCCCN(CCCOc1ccccc1)C(=O)[C@@H](N)CCCCN.Cl.Cl
- MIC [1]: 2 µg/mL
- MIC [2]: 2 µg/mL
- MIC ([3]; 18 h): 8 µg/mL
- MIC [4]: 8 µg/mL
- HC50 at 1 h [5]: 89 µg/mL
- selectivity ratio [6]: 45.5

SMILES: CCCCCCCN(CCOc1ccc(OCCN(CCCCCCC)C(=O)[C@H](C)N)cc1)C(=O)[C@H](C)N.Cl.Cl
- MIC [1]: 1 µg/mL
- MIC [2]: 2 µg/mL
- MIC ([3]; 18 h): 2 µg/mL
- MIC [4]: 2 µg/mL
- HC50 at 1 h [5]: 76 µg/mL
- selectivity ratio [6]: 76

SMILES: CCCCCCCCN(CCCOc1cccc(-c2cccc(OCCCN(CCCCCCCC)C(=O)[C@@H](N)CCCCN)c2)c1)C(=O)[C@@H](N)CCCCN.Cl.Cl.Cl.Cl
- MIC [1]: 2 µg/mL
- MIC [2]: 1 µg/mL
- MIC ([3]; 18 h): 2 µg/mL
- MIC [4]: 2 µg/mL
- HC50 at 1 h [5]: 15 µg/mL
- selectivity ratio [6]: 7.5

SMILES: CCCCCCN(CCCOc1ccccc1OCCCN(CCCCCC)C(=O)[C@@H](N)CCCCN)C(=O)[C@@H](N)CCCCN.Cl.Cl.Cl.Cl
- MIC [1]: 8 µg/mL
- MIC [2]: 8 µg/mL
- MIC ([3]; 18 h): 64 µg/mL
- MIC [4]: 32 µg/mL
- HC50 at 1 h [5]: > 1000 µg/mL
- selectivity ratio [6]: > 125

SMILES: CCCCCCCCN(CCCOc1ccc2ccccc2c1-c1c(OCCCN(CCCCCCCC)C(=O)[C@@H](N)CCCCN)ccc2ccccc12)C(=O)[C@@H](N)CCCCN.Cl.Cl.Cl.Cl (stereo in doubt; 8o)
- MIC [1]: 4 µg/mL
- MIC [2]: 2 µg/mL
- MIC ([3]; 18 h): 8 µg/mL
- MIC [4]: 4 µg/mL
- HC50 at 1 h [5]: 100 µg/mL
- selectivity ratio [6]: 25

SMILES: CCCCCCCCN(CCCOc1ccccc1)C(=O)[C@@H](N)CCCCN.Cl.Cl
- MIC [1]: 8 µg/mL
- MIC [2]: 4 µg/mL
- MIC ([3]; 18 h): 32 µg/mL
- MIC [4]: 16 µg/mL
- HC50 at 1 h [5]: 275 µg/mL
- selectivity ratio [6]: 34

SMILES: CCCCCCN(CCCOc1ccc(-c2ccc(OCCCN(CCCCCC)C(=O)[C@@H](N)CCCCN)cc2)cc1)C(=O)[C@@H](N)CCCCN.Cl.Cl.Cl.Cl
- MIC [1]: 1 µg/mL
- MIC [2]: 1 µg/mL
- MIC ([3]; 18 h): 1 µg/mL
- MIC [4]: 1 µg/mL
- HC50 at 1 h [5]: 170 µg/mL
- selectivity ratio [6]: 170

SMILES: CCCCCCCCN(CCCOc1ccc(OCCCN(CCCCCCCC)C(=O)[C@@H](N)CCCCN)cc1)C(=O)[C@@H](N)CCCCN.Cl.Cl.Cl.Cl
- MIC [1]: 2 µg/mL
- MIC [2]: 1 µg/mL
- MIC ([3]; 18 h): 2 µg/mL
- MIC [4]: 1 µg/mL
- HC50 at 1 h [5]: 37 µg/mL
- selectivity ratio [6]: 18.5

SMILES: CCCCCCN(CCCOc1cccc(-c2cccc(OCCCN(CCCCCC)C(=O)[C@@H](N)CCCCN)c2)c1)C(=O)[C@@H](N)CCCCN.Cl.Cl.Cl.Cl
- MIC [1]: 0.5 µg/mL
- MIC [2]: 0.5 µg/mL
- MIC ([3]; 18 h): 1 µg/mL
- MIC [4]: 1 µg/mL
- HC50 at 1 h [5]: 216 µg/mL
- selectivity ratio [6]: 432

SMILES: CCCCN(CCCOc1ccccc1-c1ccccc1OCCCN(CCCC)C(=O)[C@@H](N)CCCCN)C(=O)[C@@H](N)CCCCN.Cl.Cl.Cl.Cl
- MIC [1]: 8 µg/mL
- MIC [2]: 8 µg/mL
- MIC ([3]; 18 h): 32 µg/mL
- MIC [4]: 32 µg/mL
- HC50 at 1 h [5]: > 1000 µg/mL
- selectivity ratio [6]: > 125

SMILES: CCCCCCCCCN(CCCCOc1ccc(OCCCCN(CCCCCCCCC)C(=O)[C@@H](N)CCCCN)cc1)C(=O)[C@@H](N)CCCCN.Cl.Cl.Cl.Cl
- MIC [1]: 2 µg/mL
- MIC [2]: 1 µg/mL
- MIC ([3]; 18 h): 2 µg/mL
- MIC [4]: 1 µg/mL
- HC50 at 1 h [5]: 12 µg/mL
- selectivity ratio [6]: 6

SMILES: CCCCCCCN(CCOc1ccc(OCCN(CCCCCCC)C(=O)[C@@H](N)[C@@H](C)CC)cc1)C(=O)[C@@H](N)[C@@H](C)CC.Cl.Cl
- MIC [1]: 0.5 µg/mL
- MIC [2]: 1 µg/mL
- MIC ([3]; 18 h): 2 µg/mL
- MIC [4]: 2 µg/mL
- HC50 at 1 h [5]: 47 µg/mL
- selectivity ratio [6]: 94

SMILES: CCCCCCCCN(CCCOc1cc2ccccc2cc1OCCCN(CCCCCCCC)C(=O)[C@@H](N)CCCCN)C(=O)[C@@H](N)CCCCN.Cl.Cl.Cl.Cl
- MIC [1]: 1 µg/mL
- MIC [2]: 1 µg/mL
- MIC ([3]; 18 h): 2 µg/mL
- MIC [4]: 1 µg/mL
- HC50 at 1 h [5]: 68 µg/mL
- selectivity ratio [6]: 68

SMILES: CCCCCCN(CCCOc1ccccc1)C(=O)[C@@H](N)CCCCN.Cl.Cl
- MIC [1]: 64 µg/mL
- MIC [2]: 64 µg/mL
- MIC ([3]; 18 h): 128 µg/mL
- MIC [4]: 128 µg/mL
- HC50 at 1 h [5]: > 1000 µg/mL
- selectivity ratio [6]: > 15.6

SMILES: CCCCCCCN(CCOc1ccc(OCCN(CCCCCCC)C(=O)[C@@H](N)CC(C)C)cc1)C(=O)[C@@H](N)CC(C)C.Cl.Cl
- MIC [1]: < 0.25 µg/mL
- MIC [2]: 0.5 µg/mL
- MIC ([3]; 18 h): 2 µg/mL
- MIC [4]: 1 µg/mL
- HC50 at 1 h [5]: 36 µg/mL
- selectivity ratio [6]: > 144

SMILES: CCCCCCCN(CCCOc1ccccc1)C(=O)[C@@H](N)CCCCN.Cl.Cl
- MIC [1]: 32 µg/mL
- MIC [2]: 16 µg/mL
- MIC ([3]; 18 h): 128 µg/mL
- MIC [4]: 64 µg/mL
- HC50 at 1 h [5]: 773 µg/mL
- selectivity ratio [6]: 24.2

SMILES: CCCCCCCCCCN(CCCOc1ccccc1-c1ccccc1OCCCN(CCCCCCCCCC)C(=O)[C@@H](N)CCCCN)C(=O)[C@@H](N)CCCCN.Cl.Cl.Cl.Cl
- MIC [1]: 8 µg/mL
- MIC [2]: 8 µg/mL
- MIC ([3]; 18 h): 8 µg/mL
- MIC [4]: 8 µg/mL
- HC50 at 1 h [5]: 40 µg/mL
- selectivity ratio [6]: 5

SMILES: CCCCCCCCN(CCCOc1ccc2c(OCCCN(CCCCCCCC)C(=O)[C@@H](N)CCCCN)cccc2c1)C(=O)[C@@H](N)CCCN.Cl.Cl.Cl.Cl
- MIC [1]: 1 µg/mL
- MIC [2]: 1 µg/mL
- MIC ([3]; 18 h): 1 µg/mL
- MIC [4]: 1 µg/mL
- HC50 at 1 h [5]: 14 µg/mL
- selectivity ratio [6]: 14

SMILES: CCCCCCCN(CCCCOc1ccc(OCCCCN(CCCCCCC)C(=O)[C@@H](N)CCCCN)cc1)C(=O)[C@@H](N)CCCCN.Cl.Cl.Cl.Cl
- MIC [1]: 2 µg/mL
- MIC [2]: 1 µg/mL
- MIC ([3]; 18 h): 1 µg/mL
- MIC [4]: 1 µg/mL
- HC50 at 1 h [5]: 148 µg/mL
- selectivity ratio [6]: 74

SMILES: CCCCCCN(CCCOc1ccc2ccccc2c1-c1c(OCCCN(CCCCCC)C(=O)[C@@H](N)CCCCN)ccc2ccccc12)C(=O)[C@@H](N)CCCCN.Cl.Cl.Cl.Cl (stereo in doubt; 8m)
- MIC [1]: 1 µg/mL
- MIC [2]: 1 µg/mL
- MIC ([3]; 18 h): 2 µg/mL
- MIC [4]: 1 µg/mL
- HC50 at 1 h [5]: 61 µg/mL
- selectivity ratio [6]: 61

SMILES: C[C@@H](O)[C@H]1C(=O)N2C(C(=O)O)=C(S[C@@H]3CN[C@H](C(=O)N(C)C)C3)[C@H](C)[C@H]12 [MEROPENEM]
- MIC [3]: 0.062 µg/mL (≈ 0.162 µM)
